In experiment [1] the target is T1, B1R of the rat (Rattus norvegicus, UniProt P97583).
T1 construct: expressed in transfected cells; host or cells: CHO K1 cells (Chinese hamster ovary), stably transfected
T1 sequence (P97583 1-337): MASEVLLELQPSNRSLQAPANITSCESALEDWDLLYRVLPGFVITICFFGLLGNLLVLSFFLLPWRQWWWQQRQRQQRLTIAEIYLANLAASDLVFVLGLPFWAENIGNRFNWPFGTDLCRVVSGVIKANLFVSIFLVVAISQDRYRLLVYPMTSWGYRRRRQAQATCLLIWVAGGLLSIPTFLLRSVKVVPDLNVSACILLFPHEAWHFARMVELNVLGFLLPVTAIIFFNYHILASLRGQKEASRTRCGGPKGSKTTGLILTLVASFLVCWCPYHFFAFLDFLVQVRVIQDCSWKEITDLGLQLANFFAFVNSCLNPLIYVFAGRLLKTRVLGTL
Kind of experiment: FLIPR Ca2+ functional assay, B1R antagonism, rat B1R in CHO K1 cells. In kind it is cell-based. The conditions noted are these: test substance 10 μM; rB1R CHO K1 cells; agonist Des-Arg9 bradykinin at EC80; % of maximum achievable inhibition. The essentials: (§1)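 IC50 values come from varied compound concentrations applied 10-20 min before an EC80 agonist challenge, with Des-Arg9 bradykinin for rat and Lys-Des-Arg9 bradykinin for human receptor. Ca2+ influx in Fluo-4-loaded CHO K1 transfectants was measured by FLIPR peak fluorescence. Data are % inhibition vs maximum, n=2-3, N>=2.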

Experiment [2] deals with T2, human B1R (Homo sapiens, UniProt P46663).
T2 construct: expressed in transfected cells; host or cells: CHO K1 cells (Chinese hamster ovary), stably transfected
T2 sequence (P46663 1-353): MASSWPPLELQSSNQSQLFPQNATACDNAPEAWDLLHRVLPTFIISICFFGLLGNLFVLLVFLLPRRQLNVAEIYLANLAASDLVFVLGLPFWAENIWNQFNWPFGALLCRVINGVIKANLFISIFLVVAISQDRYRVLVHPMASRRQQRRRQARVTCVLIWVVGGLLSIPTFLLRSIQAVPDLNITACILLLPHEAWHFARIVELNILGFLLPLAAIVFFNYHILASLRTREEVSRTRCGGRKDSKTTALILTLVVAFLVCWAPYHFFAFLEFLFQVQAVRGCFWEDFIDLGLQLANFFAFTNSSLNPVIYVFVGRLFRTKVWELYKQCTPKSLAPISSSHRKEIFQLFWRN
The experiment is described as follows: FLIPR Ca2+ functional assay, B1R antagonism, human B1R in CHO K1 cells. In kind it is cell-based. The conditions noted are these: test substance 10 μM; hB1R CHO K1 cells; agonist Lys-Des-Arg9 bradykinin at EC80; % of maximum achievable inhibition. The essentials:
as §1

By inhibition is commonly meant the relative decrease from the control value, in per cent.

In the case of `COc1cc(C)c(S(=O)(=O)N2CCn3cccc3C2COCC(=O)N2CCC(Oc3ccncc3)CC2)c(C)c1` (centres unmarked) [Example 13, 2-((2-(4-Methoxy-2,6-dimethylphenylsulfonyl)-1,2,3,4-tetrahydropyrrolo[1,2-a]pyrazin-1-yl)methoxy)-1-(4-(pyridin-4-yloxy)piperidin-1-yl)ethanone], the inhibition at 10 µM in experiment [1] and in experiment [2] was 100% each time.
With `Cc1ccc(S(=O)(=O)N2CCn3cccc3C2CC(=O)NC2CCCc3cc(CN4C5CCCC4CC5)ccc32)cc1Cl` (centres unmarked) [Example 110, N-[6-(8-Azabicyclo[3.2.1]octan-8-yl-methyl)-1,2,3,4-tetrahydro-naphthalen-1-yl]-2-[2-[(3-chloro-4-methyl-phenyl)sulfonyl]-1,2,3,4-tetrahydro-pyrrolo[1,2-a]pyrazin-1-yl]-acetamide], the inhibition at 10 µM in experiment [1] worked out at 98.8%; in experiment [2] it was 99.9%.
With `COc1cc(C)c(S(=O)(=O)N2CCn3cccc3C2COCC(=O)N2CCC(OCCN3CCCC3)(c3cccnc3)CC2)c(C)c1` (centres unmarked) [Example 24, 2-((2-(4-Methoxy-2,6-dimethylphenylsulfonyl)-1,2,3,4-tetrahydropyrrolo[1,2-a]pyrazin-1-yl)methoxy)-1-(4-(pyridin-3-yl)-4-(2-(pyrrolidin-1-yl)ethoxy)piperidin-1-yl)ethanone], the inhibition at 10 µM in experiment [1] came to 114%; in experiment [2], 99.9%.
Consider `CN1CCN(Cc2ccc3c(c2)CCC(NC(=O)CC2c4cccn4CCN2S(=O)(=O)c2cccc(C(F)(F)F)c2)C3)CC1` (centres unmarked) [Example 68, N-[6-[(4-Methyl-piperazin-1-yl)-methyl]-1,2,3,4-tetrahydro-naphthalen-2-yl]-2-[2-[[3-(trifluoromethyl)phenyl]sulfonyl]-1,2,3,4-tetrahydro-pyrrolo[1,2-a]pyrazin-1-yl]-acetamide], for which the inhibition at 10 µM amounted to 98.9% in experiment [1] and 99.7% in experiment [2].
For `O=C(CC1c2cccn2CCN1S(=O)(=O)c1cccc(C(F)(F)F)c1)NC1CCCc2cc(CN3CCCCC3)ccc21` (centres unmarked) [Example 89, N-[6-(Piperidin-1-yl-methyl)-1,2,3,4-tetrahydro-naphthalen-1-yl]-2-[2-[[3-(trifluoromethyl)phenyl]sulfonyl]-1,2,3,4-tetrahydro-pyrrolo[1,2-a]pyrazin-1-yl]-acetamide], the inhibition at 10 µM in experiment [1] came to 99.1%; in experiment [2], 100%.
As for `CNCc1ccc2c(c1)CCC(NC(=O)CC1c3cccn3CCN1S(=O)(=O)c1ccc(C)cc1)C2` (centres unmarked) [Example 140, N-[6-(Methylamino-methyl)-1,2,3,4-tetrahydro-naphthalen-2-yl]-2-[2-(p-tolylsulfonyl)-1,2,3,4-tetrahydro-pyrrolo[1,2-a]pyrazin-1-yl]-acetamide], the inhibition at 10 µM in experiment [1] turned out to be 102%; in experiment [2] it was 96.1%.
The matching figures for `CN(Cc1ccc2c(c1)CCCC2NC(=O)CC1c2cccn2CCN1S(=O)(=O)c1cccc(C(F)(F)F)c1)C(C)(C)C` (centres unmarked) [Example 113, N-[6-[(tert-Butyl-methyl-amino)-methyl]-1,2,3,4-tetrahydro-naphthalen-1-yl]-2-[2-[[3-(trifluoromethyl)phenyl]sulfonyl]-1,2,3,4-tetrahydro-pyrrolo[1,2-a]pyrazin-1-yl]-acetamide]: 97.1% and 99.8%.
For `O=C(CC1c2cccn2CCN1S(=O)(=O)c1cccc(C(F)(F)F)c1)NC1CCc2cc(CN3CCCC3)ccc2C1` (centres unmarked) [Example 84, N-[6-(Pyrrolidin-1-yl-methyl)-1,2,3,4-tetrahydro-naphthalen-2-yl]-2-[2-[[3-(trifluoromethyl)phenyl]sulfonyl]-1,2,3,4-tetrahydro-pyrrolo[1,2-a]pyrazin-1-yl]-acetamide], the inhibition at 10 µM in experiment [1] came out at 100%; in experiment [2], 99.8%.
Turning to `Cc1ccc(S(=O)(=O)N2CCn3cccc3C2CC(=O)NC2CCc3cc(CN4CCOCC4)ccc3C2)cc1` (centres unmarked) [Example 87, N-[6-(Morpholin-4-yl-methyl)-1,2,3,4-tetrahydro-naphthalen-2-yl]-2-[2-(p-tolylsulfonyl)-1,2,3,4-tetrahydro-pyrrolo[1,2-a]pyrazin-1-yl]-acetamide], the inhibition at 10 µM in experiment [1] is 102%; in experiment [2], 99.4%.
As to `CC(C)(C)NCc1ccc2c(c1)CCCC2NC(=O)CC1c2cccn2CCN1S(=O)(=O)c1cccc(C(F)(F)F)c1` (centres unmarked) [Example 82, N-[6-[(tert-Butylamino)-methyl]-1,2,3,4-tetrahydro-naphthalen-1-yl]-2-[2-[[3-(trifluoromethyl)phenyl]sulfonyl]-1,2,3,4-tetrahydro-pyrrolo[1,2-a]pyrazin-1-yl]-acetamide], the inhibition at 10 µM is 101% in experiment [1] and 99.9% in experiment [2].
Take `Cc1ccc(S(=O)(=O)N2CCn3cccc3C2CC(=O)N[C@@H]2CCCc3cc(CNC(C)(C)C)ccc32)cc1` (stereo partly drawn) [Example 42, N-[(1R)-6-[(tert-Butylamino)-methyl]-1,2,3,4-tetrahydro-naphthalen-1-yl]-2-[2-(p-tolylsulfonyl)-1,2,3,4-tetrahydro-pyrrolo[1,2-a]pyrazin-1-yl]-acetamide]: the inhibition at 10 µM in experiment [1] was 107%; in experiment [2] it was 99.9%.
`COc1ccc2cc(S(=O)(=O)N3CCn4cccc4C3CC(=O)NC3CCCc4cc(CN5C6CCCC5CC6)ccc43)ccc2c1` (centres unmarked) [Example 95, N-[6-(8-Azabicyclo[3.2.1]octan-8-yl-methyl)-1,2,3,4-tetrahydro-naphthalen-1-yl]-2-[2-[(6-methoxy-naphthalen-2-yl)sulfonyl]-1,2,3,4-tetrahydro-pyrrolo[1,2-a]pyrazin-1-yl]-acetamide]: the results for the inhibition at 10 µM in experiment [1] and in experiment [2] were 99.8% and 99.7%, respectively.
In the case of `Cc1ccc(S(=O)(=O)N2CCn3cccc3C2CC(=O)NC2CCCc3cc(CNCc4ccccc4)ccc32)cc1Cl` (centres unmarked) [Example 111, N-[6-[(Benzylamino)-methyl]-1,2,3,4-tetrahydro-naphthalen-1-yl]-2-[2-[(3-chloro-4-methyl-phenyl)sulfonyl]-1,2,3,4-tetrahydro-pyrrolo[1,2-a]pyrazin-1-yl]-acetamide], the inhibition at 10 µM was 103% in experiment [1] and 100% in experiment [2].
On to `Cc1ccc(S(=O)(=O)N2CCn3cccc3C2CC(=O)NC2CCc3cc(CNC(C)(C)C)ccc3C2)cc1Cl` (centres unmarked) [Example 60, N-[6-[(tert-Butylamino)-methyl]-1,2,3,4-tetrahydro-naphthalen-2-yl]-2-[2-[(3-chloro-4-methyl-phenyl)sulfonyl]-1,2,3,4-tetrahydro-pyrrolo[1,2-a]pyrazin-1-yl]-acetamide], for which the inhibition at 10 µM in experiment [1] amounted to 99.5%; in experiment [2], 99.8%.
For `Cc1ccc(S(=O)(=O)N2CCn3cccc3C2CC(=O)NC2CCc3cc(CN(C)C)ccc3C2)cc1Cl` (centres unmarked) [Example 115, 2-[2-[(3-Chloro-4-methyl-phenyl)sulfonyl]-1,2,3,4-tetrahydro-pyrrolo[1,2-a]pyrazin-1-yl]-N-[6-(dimethylaminomethyl)-1,2,3,4-tetrahydro-naphthalen-2-yl]-acetamide] the same measures were 102% and 99.8%.
For `COc1ccc2cc(S(=O)(=O)N3CCn4cccc4C3CC(=O)NC3CCc4cc(CN5CCOCC5)ccc4C3)ccc2c1` (centres unmarked) [Example 118, 2-[2-[(6-Methoxy-naphthalen-2-yl)sulfonyl]-1,2,3,4-tetrahydro-pyrrolo[1,2-a]pyrazin-1-yl]-N-[6-(morpholin-4-yl-methyl)-1,2,3,4-tetrahydro-naphthalen-2-yl]-acetamide] the same measures were 102% and 100%.

For the origin of these results see patent US8158628B2, “Sulfonylated 1,2,3,4-tetrahydropyrrolo[1,2-a]pyrazine compounds and their use as pharmaceuticals” (Gruenenthal GmbH, priority 2009, dated 2012).
